Laboratory results taken from patent publication US20240009179A1, “METHODS OF TREATING CYSTIC FIBROSIS USING WITH-NO-LYSINE (WNK) KINASE PATHWAY INHIBITORS” (UNIVERSITY OF IOWA RESEARCH FOUNDATION, priority 2022, published 2024).

Assays:
CaCC = experiment: Ussing chamber, response to apical DIDS in CF epithelia; type: cell-based, human; conditions: WNK463 10 μM, 2 hours, after amiloride and UTP
Method: (§1) Electrophysiologic studies. Airway epithelia were mounted in modified Ussing chambers (Physiologic Instruments) and bathed in symmetric Krebs buffer solution. The standard Krebs buffer contained (in mM): 118.9 NaCl, 25 NaHCO3, 2.4 K2HPO4, 0.6 KH2PO4, 1.2 MgCl2, 1.2 CaCl2), and 5 dextrose at 37° C., adjusted to pH 7.4 in the presence of 5% CO2. The HCO3^−-free solution contained (in mM): 135 NaCl, 2.4 K2HPO4, 0.6 KH2PO4, 1.2 MgCl2, 1.2 CaCl2), 5 HEPES, and 5 dextrose at 37° C., adjusted to pH 7.4 in nominally C02^−free environment. The Cl^−-free solution contained (in mM): 118.9 Na gluconate, 25 NaHCO3, 2.4 K2HPO4, 0.6 KH2PO4, 5 Ca gluconate, 1 Mg gluconate, 5 dextrose, at 37° C. and adjusted to pH 7.4 in the presence of 5% C02. Epithelia were voltage clamped, followed by recording of the short-circuit current (ISC) and transepithelial conductance (Gt). Exposure to either vehicle (DMSO) or WNK463 was continued during recording. The following agents were added apically (in μM): 100 amiloride, 20 uridine triphosphate (UTP), 100 4,4′-diisothiocyano-2,2′-stilbenedisulfonic acid (DIDS), 10 forskolin, and 10 CFTRinh-172. In some experiments, 100 μM bumetanide was also added to the serosal chambers.
CF epithelia lack functional CFTR channels, but express CaCC. […] Next, we added DIDS, a non-specific CaCC inhibitor, and recorded the change in ISC and Gt.

[1] = rat model of hypertension; cited from earlier work
primary CF epithelia [2] = experiment: Liquid absorption assay; type: cell-based, human; conditions: WNK463 10 μM, 4 hours
Method: Liquid absorption assay. Liquid absorption was measured using a previously reported method (40). Briefly, airway epithelia were transferred to 500 μl of fresh basolateral solution containing either vehicle or 10 μM WNK463. The apical side was suctioned dry and 30 μl of Krebs buffer solution was introduced. Of note, the apical solution had the same ionic composition, osmolality, and pH as the basolateral solution. After 4 hours, the apical liquid was collected with micropipettes (Drummond Microcaps #1-000-1000) and the height of the liquid column was recorded. Volume of liquid was calculated as the product of height and micropipette cross-sectional area. The difference between the original and 4-hour liquid volumes was used to calculate the rate of absorption (μl·cm^−2·h^−1).

primary CF epithelia [3] = experiment: ASL viscosity measurement (FRAP); type: cell-based, human; conditions: WNK463 10 μM, 2 hours
Method: ASL viscosity measurement. ASL viscosity was measured using the fluorescence recovery after photobleaching (FRAP) method as previously reported (12). Briefly, powdered FITC-dextran (70 kD, Sigma) was delivered to the apical side of airway epithelia, and allowed to equilibrate for 2 hours. Epithelia were moved to a humidified chamber on the Zeiss LSM 880 confocal microscope. The chamber maintained a temperature of 37° C. and an atmosphere of 5% CO2. After baseline imaging, a small region of interest was photobleached. Time series fluorescence recovery images were collected until maximal recovery was reached. For each epithelium, 4-5 curves from different locations were obtained and averaged. The time constant (T) was calculated from the fluorescence recovery curves using regression, and expressed as ASL value normalized to saline (τASL/τsaline).

primary CF epithelia [4] = experiment: Ciliary beat frequency measurement; type: cell-based, human; conditions: WNK463 10 μM, 2 hours
Method: Ciliary beat frequency measurement. Phase contrast videos of ciliary motion were obtained using the Zeiss Axio Observer microscope at 50 frames per second at room temperature. A total of 256 frames (5.1 second videos) were obtained for each field. A minimum of five random fields per culture were selected. Whole field gaussian mean ciliary beat frequencies (CBF) were analyzed using the Sisson-Ammons video analysis software (SAVA; Ammons Engineering, Mt. Morris, MI) (41).

[5] = system: primary cultures of non-CF epithelia; experiment: pHASL measurement (SNARF-1-dextran) in primary non-CF airway epithelia; type: cell-based, human; conditions: WNK463 10 μM, 2 hours, 25 mM HCO3− and 5% CO2
Excerpt: (§2) Cell culture. Primary cultures of differentiated airway epithelia were obtained without passage from multiple human donors as previously reported (37). Briefly, proximal bronchi were dissected, cut into small pieces, and enzymatically digested. Epithelial cells were isolated and seeded onto collagen-coated inserts (Costar, 3470; Falcon, 353180). Epithelia were differentiated at the air liquid interface for 3 weeks or more prior to assay. During the course of this study, new CF lung donors became scarce, partly due to more individuals taking highly-active CFTR modulators. To manage this situation, epithelial cells from previous CF donors cryopreserved at PO were thawed and differentiated. Whenever feasible, studies followed a paired design so that epithelia from the same donor were assayed under control and treatment conditions.
pHASL measurement. pHASL was measured using a fluorescent ratiometric pH indicator, SNARF-1, conjugated to 70 kD dextran (Thermo Fisher Scientific). SNARF-1-dextran was delivered as a powder to the apical side and allowed to distribute into ASL for 1 hour. […] SNARF-1 was excited at 514 nm, and emissions at 580 nm and 640 nm were recorded. The ratio of fluorescence intensities (580/640) was obtained to calculate pH values using calibration curves constructed from colorless standard pH solutions. […]

[6] = system: primary cultures of differentiated CF airway epithelia; experiment: pHASL measurement (SNARF-1-dextran) in primary CF airway epithelia; type: cell-based, human
Excerpt: as §2
(§3) pHASL measurement. pHASL was measured using a fluorescent ratiometric pH indicator, SNARF-1, conjugated to 70 kD dextran (Thermo Fisher Scientific). SNARF-1-dextran was delivered as a powder to the apical side and allowed to distribute into ASL for 1 hour. Imaging was performed on a laser-scanning confocal microscope (Zeiss LSM 880). SNARF-1 was excited at 514 nm, and emissions at 580 nm and 640 nm were recorded. The ratio of fluorescence intensities (580/640) was obtained to calculate pH values using calibration curves constructed from colorless standard pH solutions. The microscope chamber housing epithelia maintained a humidified environment at 37° C. 5% CO2 was added to the chamber environment whenever the basolateral side was immersed in a HCO3^− containing buffer solution, but removed when a HCO3^−-free (HEPES) buffer solution was used.

CFTR = experiment: Ussing chamber, response to CFTRinh-172 in non-CF epithelia; type: cell-based, human; conditions: WNK463 10 μM
Method: as §1
WNK463 reduces electrogenic Cl^− secretion. CFTR is the main route for anion exit across the apical membrane of airway epithelia. Whether WNK inhibition alters CFTR activity in airway epithelia is not well-established. To test, we exposed non-CF epithelia to WNK463 for 2 hours, and assayed in Ussing chambers containing symmetric Krebs solution (118 mM Cl^− and 25 mM HCO3^−, gassed with 5% CO2). After clamping transepithelial voltage, we recorded ISC and Gt, and elicited responses to selective channel inhibitors or activators (FIGS. 5A and 5B). We added amiloride followed by DIDS to abolish ENaC-mediated Na^+ absorption and Ca^2+-activated Cl^− channel (CaCC)-mediated anion secretion, respectively. Next, we added forskolin to increase cellular cAMP and thereby phosphorylate and activate CFTR channels. We concluded with CFTRinh-172, an inhibitor of CFTR. We assessed the response to CFTRinh-172 and used it to estimate CFTR channel activity. WNK463 reduced ΔISC-CFTR by ˜ 50% (FIG. 5C).

S. aureus = S. aureus killing assay (ASL antimicrobial activity, bacteria-coated grids); type: cell-based; conditions: primary CF epithelia; WNK463 10 μM, 2 hours
Method: S. aureus killing assay. ASL antimicrobial activity was assessed using bacteria-coated grids. Preparation, imaging, and quantification were performed as previously described (13). Briefly, S. aureus isolate SA-CL37 was grown to log-phase, labeled with biotin, and conjugated to streptavidin-coated gold electron microscopy grids. The grids were placed on the apical side of airway epithelia in direct contact with ASL. After incubating for 15 minutes in humidified, 5% CO2 chambers at 37° C., the grids were retrieved, rinsed with PBS, and immersed in SYTO9 and propidium iodide to determine bacterial viability (Live/Dead Bacterial Viability Assay, Invitrogen). The grids were washed, fixed with 4% paraformaldehyde, and imaged on the Olympus Fluoview FV 3000 confocal microscope. Images were analyzed for numbers of live and dead bacteria using the ImageJ software. For each grid, three separate regions were imaged. Two grids were assessed per epithelium and the results averaged to obtain % S. aureus killing.

NKCC1 [7] = experiment: Ussing chamber, bumetanide-sensitive ISC in non-CF epithelia; type: cell-based, human; conditions: WNK463 10 μM, 2 hours, amiloride, forskolin, then basolateral bumetanide
Method: as §1
(§4) Reducing basolateral Cl^−-entry increases CF pHASL. […] To estimate the contribution of NKCC1, we added basolateral bumetanide, and measured ΔISC. […]

[8] = system: TNFα/IL-17-treated CF epithelia; experiment: pHASL measurement in TNFα/IL-17-treated CF epithelia; type: cell-based, human; conditions: CF epithelia treated with TNFα 10 ng/ml and IL-17 20 ng/ml for 48 hours, 2 hours
Method: To assess cytokine-induced responses, epithelia were treated with a combination of 10 ng/ml TNFα (R&D Systems) and 20 ng/ml IL-17 (R&D Systems). Both cytokines were added to the basolateral media for 48 hours prior to assessments. All studies were approved by the University of Iowa Institutional Review Board.
as §3

NKCC1 [9] = experiment: Ussing chamber, bumetanide-sensitive ISC in CF epithelia; type: cell-based, human; conditions: WNK463 10 μM, 2 hours, amiloride, UTP, then basolateral bumetanide
Method: as §1, §4

airway epithelia = conditions: previous studies in airway epithelia; cited from earlier work
[10] = 2 hours, symmetric Krebs solution with Cl− and HCO3−

CC(C)(C)NC(=O)c1cncn1C1CCN(c2ccc(-c3nnc(C(F)(F)F)o3)cn2)CC1 [WNK463]
DIDS-sensitive ΔGt (CaCC): slightly increased | DIDS-sensitive ΔISC (CaCC): decreased | adverse effects [1]: adverse effects | rate of apical liquid absorption (primary CF epithelia [2]): did not alter | ASL viscosity (τASL/τsaline) (primary CF epithelia [3]): decreased | ciliary beat frequency (primary CF epithelia [4]): increased | pHASL [5]: increased | pHASL ([6]; CF epithelia, WNK463 10 μM, 2 hours, in the absence of basolateral Cl−): failed to alkalinize | pHASL ([6]; primary CF epithelia, WNK463 10 μM, 2 hours, 25 mM HCO3− and 5% CO2): increased | pHASL, time course ([6]; primary CF epithelia, continued exposure up to 24 hours versus 2 hours): did not further alkalinize | pHASL response ([6]; primary CF epithelia, nominally HCO3−/CO2-free environment (HEPES), WNK463 10 μM): disappeared | ΔISC-CFTR (CFTR; Cl−-free solution): remained unchanged | reduction of ΔISC-CFTR (CFTR; [10]): ~50% | ΔGt-CFTR (CFTR; [10]): remained unchanged | ΔISC-CFTR (CFTR; symmetric HCO3−-free solution): reduced | ASL-mediated S. aureus killing (S. aureus): increased | bumetanide-sensitive ISC (NKCC1 [7]): reduced | pHASL ([8]; WNK463 10 μM): further increased | bumetanide-sensitive ISC (NKCC1 [9]): reduced

CCCCNc1cc(C(=O)O)cc(S(N)(=O)=O)c1Oc1ccccc1 [bumetanide]
pHASL ([6]; CF epithelia, 2 hours after exposure to basolateral bumetanide): increased | intracellular [Cl−] (airway epithelia): decreases | pHASL ([8]; bumetanide 100 μM): further alkalinized

O=C(Nc1ccc(Oc2ccc(Cl)cc2)c(Cl)c1)c1cc(I)cc(I)c1O [rafoxanide, Rafoxanide]
pHASL ([6]; primary CF epithelia, rafoxanide applied for 2 hours): increased
